# Literature values as cited in US9844530B1, “Ophthalmic solutions for glaucoma and conjunctivitis treatment” (Axim Biotechnologies, Inc., priority 2014, dated 2017).
# Tested on: various Staphylococcus aureus strains
# Conditions: background statement
smiles,measurement,value
C=C(C)[C@@H]1CCC(C)=C[C@H]1c1c(O)cc(CCCCC)cc1O [Cannabidiol],minimum inhibitory concentration,0.5 to 1 µg/mL
